Assay results taken from paper PMC10279719 (Nature Communications, 2023).

Assays:
[1] = tested on: PEAK3 pY24 phosphorylation in MCF-10A cells; details: MCF-10A cells treated with inhibitor; cited from earlier work
14-3-3ɣ = assay: SPR, 14-3-3ɣ binding to immobilised PEAK proteins; parameters: species or system human; details: 14-3-3ɣ analyte 0.46–1000 nM, multi-cycle, over immobilised biotinylated PEAK protein; Biacore 8K+, 20 °C; KD only an estimate (bivalent analyte model); N = 3
Experimental: PEAK proteins and adapters proteins (full length or individual domains) were biotinylated using EZ-Link™ NHS-PEG4-Biotin (Thermo Fisher) at a 1:1 molar ratio (100 µM) for 1 h at room temperature, then excess biotin was removed by buffer exchange using a Zeba™ Spin Desalting Column (Thermo Fisher) into HBS-T buffer (20 mM HEPES pH 7.4, 150 mM NaCl, 1 mM TCEP).
SPR binding studies of PEAK proteins to full length CrkII/Grb2 and sub-domains were performed using a Biacore 8K+ Instrument (Cytiva) and analyzed using Biacore Insight Evaluation Software (v. 3.0.12.15655). […] Biotinylated PEAK proteins (with or without Src phosphorylation; 500 nM in HBS-TP) were immobilized using a biotin CAPture kit (Cytiva) in HBS-TP running buffer at 20 °C. Binding studies and steady-state data analysis were performed as described for CrkII^NSH3 with the inclusion of an additional surface regeneration step (60 s injection of 1 M NaCl) between cycles. For Grb2^FL, Grb2^SH2, CrkII^SH2, CrkII^FL monomer and CrkII^FL dimer, to reduce nonspecific interactions the HBS-TP running buffer was supplemented with additional NaCl to a final concentration of 500 mM.
Binding studies for 14-3-3ɣ were undertaken in the same way in multi cycle mode (8 point, 3-fold serial dilution series, 0.46–1000 nM, 60 s contact time, 300 s dissociation).

CrkII^SH2 = target: T1, CrkII^SH2 (Homo sapiens, UniProt P46108); assay: SPR, CrkII SH2 binding to immobilised PEAK proteins; details: interactor as analyte over biotinylated PEAK protein (biotin CAPture); Biacore 8K+, HBS-TP with 500 mM NaCl, 20 °C; steady-state fit; mean ± S.E.M. (N = 3)
T1 construct: CrkII^SH2; UniProt P46108-1, residues 6–120; 8-His tag with TEV protease cleavage site (N); made in house; host or cells: E. coli C41 (DE3)
Experimental: (§1) SPR binding studies of PEAK PRM peptides to CrkII^NSH3 were performed using a Biacore S200 Instrument (Cytiva). Purified CrkII^NSH3 was diluted to 5 µg ml^−1 in 10 mM sodium acetate pH 4.0 and amine coupled at 25 °C to a Series S CM5 sensor chip, in HBS-N running buffer (20 mM HEPES pH 7.4, 150 mM NaCl) to a final immobilization level of 1100–1400 response units (RU), followed by surface deactivation using 1 M ethanolamine. A blank activation/deactivation was used for the reference surface. Peptide binding studies were performed at 20 °C in HBS-TP running buffer (20 mM HEPES pH 7.4, 150 mM NaCl, 1 mM TCEP, 0.005% (v/v) Tween-P20). […] Peptide stocks were further diluted to in running buffer to 10 or 20 µM and prepared as a 11-point concentration series (2-fold serial dilution, […] for PEAK PRM peptides, or 20 µM–20 nM for PEAK tandem motif peptides). Samples were injected in a multi-cycle run (flow rate 30 µl min^−1, contact time of 60 s, dissociation 120 s) without regeneration. Sensorgrams were double referenced, and steady-state binding data fitted using a 1:1 binding model using Biacore S200 Evaluation Software (Cytiva, v. 1.1).
(§2) SPR binding studies of PEAK proteins to full length CrkII/Grb2 and sub-domains were performed using a Biacore 8K+ Instrument (Cytiva) and analyzed using Biacore Insight Evaluation Software (v. 3.0.12.15655). […] Binding studies and steady-state data analysis were performed as described for CrkII^NSH3 with the inclusion of an additional surface regeneration step (60 s injection of 1 M NaCl) between cycles.

CrkII^NSH3 = target: T2, CrkII^NSH3 (Homo sapiens, UniProt P46108); assay: SPR, CrkII NSH3 binding to immobilised PEAK proteins; details: read-out: CrkII NSH3 SPR KD; interactor as analyte over biotinylated PEAK protein captured with biotin CAPture kit; Biacore 8K+, HBS-TP, 20 °C; steady-state fit; mean ± SD (N = 2); read-out: CrkII-SH2 SPR KD
T2 construct: CrkII^NSH3; UniProt P46108-1, residues 134–191; 8-His tag with TEV protease cleavage site (N); made in house; host or cells: E. coli C41 (DE3)
Experimental: as §1, §2

T1 sequence (P46108 6-120): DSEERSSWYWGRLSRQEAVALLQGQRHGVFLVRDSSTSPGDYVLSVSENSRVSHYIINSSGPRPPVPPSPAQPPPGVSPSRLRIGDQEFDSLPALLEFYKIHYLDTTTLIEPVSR
T2 sequence (P46108 134-191): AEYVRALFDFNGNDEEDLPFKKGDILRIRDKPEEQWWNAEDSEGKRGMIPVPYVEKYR

Compound | phosphorylation of PEAK3 at the TYSNL (pY24) site [1] | Kd (14-3-3ɣ) | SPR KD, 14-3-3ɣ (14-3-3ɣ) | SPR KD, CrkII-SH2 (CrkII^SH2) | Kd (CrkII^NSH3)
Cc1nc(Nc2ncc(C(=O)Nc3c(C)cccc3Cl)s2)cc(N2CCN(CCO)CC2)n1 [dasatanib] | blocked | – | – | – | –
PEAK3-FL: full length human PEAK3 (1–473) from insect cells, S69 phosphorylated, purified as 14-3-3 complex | – | < 1 µM | bound strongly | No binding | 3.87 µM
COc1cc(-c2nn(CCN3CCC(N(C)C)CC3)c3ncnc(N)c23)ccc1NC(=O)OC(C)(C)C [eCF506] | blocked | – | – | – | –
